Results on 13 compounds are retold here after patent US20210221784A1, “COMPOUNDS AND COMPOSITIONS FOR THE TREATMENT OF PAIN” (Université de Strasbourg, priority 2018, published 2021).

The subject of one assay is NPFF receptor. The note with it: Simonin et al., PNAS (2006); cited from earlier work.
In a further assay the test system is rat. The note with it: repeated administration of opiate analgesics; cited from earlier work.
Another assay concerns the target T1, hNPFF1R (Homo sapiens, UniProt Q9GZQ6).
T1 construct: expressed in transfected cells
In words: Glo Sensor cAMP assay in HEK-293 expressing hNPFF1R. The note with it: HEK-293 cells expressing hNPFF1R; FIG. 7. Type of assay: cell-based. The procedure:
The functional characterization of the selected compounds was performed by Glo Sensor cAMP kinetic assay, a validated approach for measuring Gαi/s activation by GPCRs (DiRaddo et al., 2014; Gilissen et al., 2015). HEK-Glo cells expressing either NPFF1 or NPFF2 receptors were suspended (10^6 cells per mF) in physiological Hepes buffer (10 mM HEPES, 0.4 mM NaH2PO4, 137.5 mM NaCl, 1.25 mM MgCl2, 1.25 mM CaCl2, 6 mM KCl, 10 mM glucose and 1 mg/mF bovine serum albumin, pH 7.4) supplemented with 1 mM D-Fuciferine. After equilibration for 2 h at 25° C., luminescence levels were recorded in real time in 96-well plates using a Flexstation^R 3 (Molecular Devices, Sunnyvale Calif., USA). Non-specific effect of the different compounds was evaluated in HEK-Glo cells without any recombinant human RF-amide receptors. To test the agonist activity on NPFF1R and NPFF2R, compounds were injected 15 minutes before addition of forskolin (0.5 μM) and readings were pursued for 90 minutes. To evaluate their antagonist properties, compounds were pre-incubated with cells for 15 minutes before prototypical agonists for NPFF1R (RFRP-3) and NPFF2R (NPFF) receptors. According to their preferential coupling to Gi/o proteins, the stimulation of NPFF1R and NPFF2R by agonists was monitored as a dose-dependent reduction in steady-state luminescence levels, reflecting the inhibition of forskolin-induced cAMP accumulation. Experiments were performed at 25° C. in the presence of 0.5 mM IBMX to prevent the degradation of cAMP by phosphodiesterases.
(Cyclic AMP is a second messenger, typically raised through Gs and lowered through Gi signalling.)

Assay [1] deals with T2, human NPFFR1 (hNPFFR1) receptor (Homo sapiens, UniProt Q9GZQ6).
T2 construct: expressed in transfected cells; host or cells: HEK-293 T cells, transient co-transfection
In words: Human NPFFR1 evaluation using BRET biosensors in HEK-293 T cells. Type of assay: cell-based. The note with it: hNPFFR1 in HEK-293 T cells, stimulated by EC80 RFRP-3, read-out: IC50 of antagonist activity. Put shortly: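 HEK-293 T cells transiently co-expressing hNPFFR1, GαoB and a Gi-effector BRET biosensor pair; agonist read after 10 min compound alone, then antagonism after EC80 RFRP-3 for 10 min. IC50 from 20-point curves over 6 logs, duplicates in two independent experiments.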
Background: BRET reads energy transfer from a luciferase to a nearby fluorophore.

The target of a further assay is T3, hNPFFR2 (Homo sapiens, UniProt Q9Y5X5).
T3 construct: expressed in transfected cells; membranes
In words: Radioligand binding competition, membranes from CHO cells expressing hNPFFR2. The note with it: 0.015 nM [D-Tyr1[125I], N-MePhe3]-NPFF, 1 hr at 25° C., read-out: NPFF2-R Ki. Here is the method: Competition experiments with membranes from CHO cells stably expressing hNPFFR1 and hNPFFR2 were performed essentially as described in Elhabazi, K., et al. Neuropharmacology, 2013. 75C, 164-171., Briefly, hNPFFR1 or hNPFFR2 membranes (5 to 10 μg of proteins) were incubated (1 hr at 25° C.; 0.25 mL total volume) with 0.015 nM [D-Tyr1[125I], N-MePhe3]-NPFF (Hartmann Analytic GmbH) in 50 mM HEPES (pH 7.4), 1 mM CaCl2, 1 mM MgCl2 and 0.1% bovine serum albumin. Non-specific binding was determined in the presence of 10 μM RFRP-3. Incubation was terminated by rapid filtration through a 96-well GF/B unifilter apparatus (Perkin Elmer Life and Analytical Sciences, Courtaboeuf, France). Unifilters were washed five times with binding buffer, then dried for 1 h at 65° C. After addition of 40 μL scintillation cocktail (Microscint-O, Perkin Elmer) per well, bound radioactivity was determined on a TopCount scintillation counter (Perkin Elmer).

Assay [2] has as its system C57BF6/N male mice. Kind of assay: Fentanyl-induced hyperalgesia, tail immersion test. The note with it: FIG. 6B. Type of assay: in vivo.
In a further assay the target is T4, hNPFFR1 (Homo sapiens, UniProt Q9GZQ6).
T4 construct: expressed in transfected cells; membranes
In words: Radioligand binding competition, membranes from CHO cells expressing hNPFFR1. The note with it: 0.015 nM [D-Tyr1[125I], N-MePhe3]-NPFF, 1 hr at 25° C., read-out: NPFF1-R Ki. In a few lines: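 CHO membranes (5–10 μg protein) stably expressing hNPFFR1 or hNPFFR2 incubated 1 h at 25 °C with 0.015 nM [D-Tyr1[125I], N-MePhe3]-NPFF in HEPES pH 7.4 with Ca2+, Mg2+, 0.1% BSA. Non-specific binding defined with 10 μM RFRP-3; bound radioactivity counted after GF/B filtration.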

Assay [3] concerns C57BF6/N male mice. In words: Incisional pain model, Von Frey test. Type of assay: in vivo. The note with it: morphine 2.5 mg/kg sc. alone or 1j 5 mg/kg po alone; FIG. 3B.
The test system of assay [4] is C57BF6/N male mice. Kind of assay: Neuropathic pain model (chronic constriction injury), Von Frey test. The note with it: morphine 3 mg/kg sc. alone or 1j 5 mg/kg p.o. alone; FIG. 4B. Type of assay: in vivo.
Assay [5] deals with C57BF6/N male mice. In words: Morphine-induced hyperalgesia and tolerance, tail immersion test. In kind it is in vivo.

T4 sequence (Q9GZQ6 whole entry): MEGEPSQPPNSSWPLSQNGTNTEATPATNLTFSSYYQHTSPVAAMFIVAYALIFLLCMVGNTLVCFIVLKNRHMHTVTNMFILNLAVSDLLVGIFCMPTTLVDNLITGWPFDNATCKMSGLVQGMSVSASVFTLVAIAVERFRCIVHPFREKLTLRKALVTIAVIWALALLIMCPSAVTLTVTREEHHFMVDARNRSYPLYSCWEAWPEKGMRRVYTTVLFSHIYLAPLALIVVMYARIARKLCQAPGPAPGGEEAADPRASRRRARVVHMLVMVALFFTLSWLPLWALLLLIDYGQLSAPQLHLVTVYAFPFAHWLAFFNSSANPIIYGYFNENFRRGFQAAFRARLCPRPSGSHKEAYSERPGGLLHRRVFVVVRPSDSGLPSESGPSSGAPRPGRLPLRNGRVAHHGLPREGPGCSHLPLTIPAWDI
T2 sequence (Q9GZQ6 whole entry): as above
T3 sequence (Q9Y5X5 whole entry): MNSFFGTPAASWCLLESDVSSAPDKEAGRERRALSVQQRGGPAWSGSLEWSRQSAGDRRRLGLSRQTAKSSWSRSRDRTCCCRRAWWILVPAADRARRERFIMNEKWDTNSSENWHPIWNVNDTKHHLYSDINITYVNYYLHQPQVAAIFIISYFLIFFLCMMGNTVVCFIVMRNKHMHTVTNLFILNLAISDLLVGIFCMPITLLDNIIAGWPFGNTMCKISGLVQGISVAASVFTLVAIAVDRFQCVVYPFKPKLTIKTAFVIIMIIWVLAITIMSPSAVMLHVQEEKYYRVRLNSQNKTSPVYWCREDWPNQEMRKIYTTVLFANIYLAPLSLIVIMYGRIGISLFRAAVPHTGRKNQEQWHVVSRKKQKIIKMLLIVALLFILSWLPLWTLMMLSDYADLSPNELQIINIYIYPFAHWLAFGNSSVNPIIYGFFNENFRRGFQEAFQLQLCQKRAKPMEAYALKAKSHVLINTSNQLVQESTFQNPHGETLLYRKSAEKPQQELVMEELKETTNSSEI
T1 sequence (Q9GZQ6 whole entry): as the sequence (Q9GZQ6 whole entry) above

“N^α-adamantan-1-yl-L-Arg-L-Phe-NH2 acetate [RF9]”: the “NPFF receptor antagonist potency” value in the assay with NPFF receptor was “first nanomolar NPFF receptor antagonist”. In the assay with rat, the “antihyperalgesic activity in vivo” value was “reversing hyperalgesia induced by the repeated administration of opiate analgesics”.

With `Cc1ccccc1-c1ccc(N)nc1N` [Compound 1c, 3-(o-tolyl)pyridine-2,6-diamine], on hNPFF1R, the “antagonist activity: effect on dose response curve of NPVF (RFRP-3), forskolin-stimulated cAMP” value is “antagonist activity similar as compound 1j”. Further, the IC50 (commonly the concentration at which inhibition is half-maximal) in assay [1] was in the range of 100 to 500 nM. Further, the values for the Ki on hNPFFR2 and at hNPFFR1 were 30000 nM and 23 nM, respectively. Further, the “fentanyl hyperalgesia (hyperalgesia index d1 to d4)” value in the assay with C57BF6/N male mice [2] (0.2 mg/kg sc. 20 min before fentanyl 4×60 μg/kg sc.) and with C57BF6/N male mice [2] (1 mg/kg sc. 20 min before fentanyl 4×60 μg/kg sc.) was “prevented fentanyl hyperalgesia” throughout.

As to `CN1CC[C@]23c4c5ccc(O)c4O[C@H]2[C@@H](O)C=C[C@H]3[C@H]1C5.Cl` [morphine, Morphine hydrochloride, reference compound], the “mechanical allodynia after paw incision (allodynia index d1-d6), drug alone” value in the assay with C57BF6/N male mice [3] is given as “failed to prevent significantly the mechanical allodynia”. In the assay on C57BF6/N male mice [4], the “mechanical allodynia after CCI (allodynia index d11-d21), drug alone” value is given as “slightly but not significantly prevented the mechanical allodynia”. Further, the “Hyperalgesia index (HI) d1 to d7” value in the assay on C57BF6/N male mice [5] (daily morphine 10 mg/kg s.c., 1j 5 mg/kg oral or vehicle before morphine, FIG. 2B) is −16.2±2. In addition, in the assay with C57BF6/N male mice [5] (morphine 5 mg/kg s.c. alone or combined with 1j 5 mg/kg p.o., after chronic morphine, FIG. 2C), the “peak of analgesia at day 8” value is 9±0.8. Also, in the assay on C57BF6/N male mice [5] (morphine 5 mg/kg s.c. alone or combined with 1j 5 mg/kg p.o., FIG. 2C), the “peak of analgesia at day 0” value came out at 17±0.8.

For the compound `Nc1ccc(-c2ccccc2C(F)(F)F)c(N)n1` [Compound 1f, 3-(2-(trifluoromethyl)phenyl) pyridine-2,6-diamine], the half-inhibitory concentration (IC50) in assay [1] lay within 500 to 1000 nM. In addition, the results for the Ki on hNPFFR2 and on hNPFFR1 were 6700 nM and 22.4 nM, respectively.

On to `COc1cccc(-c2ccc(N)nc2N)c1OC` [Compound 2l, 3-(2,3-dimethoxyphenyl) pyridine-2,6-diamine], for which the IC50 in [1] was over 1000 nM. Further, the inhibition constant (Ki) (usually the dissociation constant of the complex between target and ligand, obtained from inhibition or displacement) at hNPFFR2 was found to be 900 nM; at hNPFFR1 it was 26 nM.

As for `COc1ccccc1-c1ccc(N)nc1N` [Compound 2b, 3-(2-methoxyphenyl) pyridine-2,6-diamine], in [1], the IC50 is 100 to 500 nM. Also, the Ki stood at 3000 nM at hNPFFR2 and 13.8 nM on hNPFFR1.

As for `Cc1ccccc1-c1c(C)cc(N)nc1N` [Compound 8b, 4-methyl-3-(o-tolyl)pyridine-2,6-diamine], the IC50 in assay [1] is over 1000 nM. Also, the Ki on hNPFFR2 worked out at 4600 nM; at hNPFFR1, 183 nM.

Consider `Nc1ccc(-c2cc(Cl)cc(Cl)c2)c(N)n1` [Compound 1o, 3-(3,5-dichlorophenyl) pyridine-2,6-diamine], for which, in [1], the IC50 is over 1000 nM. Also, the inhibition constant (Ki) is about 5000 nM at hNPFFR2 and about 500 nM on hNPFFR1.

In the case of `CC(C)c1ccccc1-c1ccc(N)nc1N` [Compound 1e, 3-(2-isopropylphenyl) pyridine-2,6-diamine], in [1], the IC50 was 100 to 500 nM. Besides, the inhibitory constant (Ki) was 980 nM on hNPFFR2 and 8 nM on hNPFFR1.

Regarding `Nc1ccc(Cc2ccc(F)cc2)c(N)n1` [Compound 10b, 3-(4-fluorobenzyl)pyridine-2,6-diamine], the IC50 in [1] was over 1000 nM. The Ki came out at 4200 nM on hNPFFR2 and 122 nM at hNPFFR1.

For `COc1ccccc1-c1ccc(N)nc1C(C)C` [Compound 6h, 6-isopropyl-5-(2-methoxyphenyl)pyridin-2-amine], in [1], the IC50 is 500 to 1000 nM. In addition, the Ki on hNPFFR2 was determined as 1500 nM; on hNPFFR1 it was 35.7 nM.

With `Nc1ccc(-c2ccc(Cl)cc2Cl)c(N)n1` [Compound 1k, 3-(2,4-dichlorophenyl) pyridine-2,6-diamine], in [1], the IC50 lay in the range of 100 to 500 nM. The Ki is 1180 nM on hNPFFR2 and 28 nM at hNPFFR1.

On to `CCc1nc(N)ccc1-c1ccccc1OC` [Compound 6d, 6-ethyl-5-(2-methoxyphenyl)pyridin-2-amine], for which the IC50 in assay [1] is 100 to 500 nM. In addition, the Ki at hNPFFR2 amounted to 960 nM; at hNPFFR1, 15.2 nM.
